We go through eleven compounds from PMC7993140 (Medicinal chemistry research : an international journal for …, 2020).

In the first test the target is T1, TDP2 (14M_zTDP2) (Danio rerio, UniProt Q5XJA0).
T1 sequence (Q5XJA0 121-369): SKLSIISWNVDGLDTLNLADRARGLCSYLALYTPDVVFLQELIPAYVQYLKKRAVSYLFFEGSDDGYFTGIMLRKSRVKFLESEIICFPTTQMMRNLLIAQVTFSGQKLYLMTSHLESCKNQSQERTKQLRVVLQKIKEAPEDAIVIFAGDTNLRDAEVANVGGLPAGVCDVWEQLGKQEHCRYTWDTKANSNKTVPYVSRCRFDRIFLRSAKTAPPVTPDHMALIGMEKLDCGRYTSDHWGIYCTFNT
Briefly: 14M_zTDP2 fluorescence-based biochemical assay. To be noted: at concentrations up to 50 μM.
With `Cn1cccc1C=C1C(=O)NC(=O)c2ccccc21` [12e, 4-((1-methyl-1H-pyrrol-2-yl)methylene)isoquinoline-1,3(2H,4H)-dione], the “TDP2 inhibition at 50 μM” value is “no activity”. As to `O=C1NC(=O)c2ccccc2/C1=C/NCc1ccc(O)cc1` [11b, (Z)-4-(((4-hydroxybenzyl)amino)methylene)isoquinoline-1,3(2H,4H)-dione], the “TDP2 inhibition at 50 μM” value was “no inhibition”. Still for that read-out and setting: to `O=C1NC(=O)c2ccccc2C1=Cc1cccs1` [12f, 4-(thiophen-2-ylmethylene)isoquinoline-1,3(2H,4H)-dione] belongs “no activity”; to `O=C1NC(=O)c2ccccc2C1=Cc1ccc[nH]1` [12d, 4-((1H-pyrrol-2-yl)methylene)isoquinoline-1,3(2H,4H)-dione], “no activity”.

On to `O=C1NC(=O)c2ccccc2C1=Cc1ccsc1` [12g, 4-(thiophen-3-ylmethylene)isoquinoline-1,3(2H,4H)-dione], for which the “TDP2 inhibition at 50 μM” value is reported as “no activity”.

Staying with this test, now noted: no concentration stated at the place.
On to `O=C1NC(=O)c2ccccc2C1=Cc1ccncc1` [12c, 4-(pyridin-4-ylmethylene)isoquinoline-1,3(2H,4H)-dione], for which the “TDP2 inhibition” value was “reasonable potency”.

The test is the same for the next values; noted with them: read-out: IC50 (TDP2 inhibition); in-house fluorescence-based biochemical assay; 25 °C, 60 min.
Turning to `O=C1Cc2ccccc2C(=O)N1` [compound 8, isoquinoline-1,3-dione, reference compound], the IC50 (commonly the midpoint of a concentration-inhibition curve) worked out at 22 µM. Still for that read-out and setting: to `O=C1NC(=O)c2ccccc2C1=Cc1ccc(O)cc1` [12k, 4-(4-hydroxybenzylidene)isoquinoline-1,3(2H,4H)-dione] belongs 10 µM.

With `O=C1NC(=O)c2ccccc2C1=Cc1ccc2[nH]ccc2c1` [12i, 4-((1H-indol-5-yl)methylene)isoquinoline-1,3(2H,4H)-dione], the IC50 turned out to be 13 µM. On the same count and under the same terms, to `O=C1NC(=O)c2ccccc2C1=Cc1ccc2[nH]ncc2c1` [12h, 4-((1H-indazol-5-yl)methylene)isoquinoline-1,3(2H,4H)-dione] belongs 19 µM. In the case of `O=C1NC(=O)c2ccccc2C1=Cc1ccc(C(=O)O)cc1` [12q, 4-((1,3-dioxo-2,3-dihydroisoquinolin-4(1H)-ylidene)methyl)benzoic acid], the IC50 was 4.8 µM.

The next test concerns TDP2.
Assay: not given
To be noted: read-out: previously reported IC50; previously reported value; cited from earlier work.
Consider `O=C1Cc2ccccc2C(=O)N1` [compound 8, isoquinoline-1,3-dione, reference compound], for which the IC50 is 25 µM.
